Test results: US12552748B2, “Pyridine (thio)amides as fungicidal compounds” (Bayer Aktiengesellschaft, priority 2020, dated 2026)

What was measured:
[1] = physchem; format: physicochemical
Outline: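 Reversed-phase HPLC per EEC directive 79/831 Annex V.A8, calibrated with straight-chain alkan-2-ones (C3–C16) of known Log P via linear interpolation of retention times. Lambda-max from UV spectra 200–400 nm at chromatographic peaks.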

[2] = tested on: Sphaerotheca fuliginea; assay: In vivo preventive test on Sphaerotheca fuliginea (powdery mildew on cucurbits); settings: Podosphaera fuliginea, 192 h; 500 ppm of active ingredient; preventive spray on gherkin; evaluated 8 days after inoculation; 0% = control plants, 100% = no disease; read-out: efficacy
Experimental: (§1) B-4. In Vivo Preventive Test on Sphaerotheca fuliginea (Powdery Mildew on Cucurbits [table] The active ingredients were made soluble and homogenized in a mixture of Dimethyl sulfoxide/Acetone/Tween® 80 and then diluted in water to the desired concentration. The young plants of gherkin were treated by spraying the active ingredient prepared as described above. Control plants were treated only with an aqueous solution of Acetone/Dimethyl sulfoxide/Tween® 80. After 24 hours, the plants were contaminated by spraying the leaves with an aqueous suspension of Sphaerotheca fuliginea spores.

[3] = tested on: Colletotrichum lindemuthianum; assay: Colletotrichum lindemuthianum in vitro cell test; format: cell-based; settings: 144 h, read-out: efficacy (inhibition of fungal growth)
Experimental: B-8. Colletotrichum lindemuthianum In Vitro Cell Test
• Solvent: DMSO • Culture medium: 14.6 g anhydrous D-glucose (VWR), 7.1 g Mycological Peptone (Oxoid), 1.4 g granulated Yeast Extract (Merck), QSP 1 liter • Inoculum: spores suspension
Fungicides were solubilized in DMSO and the solution used to prepare the required range of concentrations. The final concentration of DMSO used in the assay was ≤1%.
A spore suspension of C. lindemuthianum was prepared and diluted to the desired spore density.
Fungicides were evaluated for their ability to inhibit spores germination and mycelium growth in liquid culture assay. The compounds were added in the desired concentration to the culture medium with spores. After 6 days incubation, fungi-toxicity of compounds was determined by spectrometric measurement of mycelium growth. Inhibition of fungal growth was determined by comparing the absorbance values in wells containing the fungicides with the absorbance in control wells without fungicides.

[4] = tested on: Botrytis cinerea; assay: In vivo preventive test on Botrytis cinerea (grey mould); settings: 500 ppm of active ingredient, preventive spray on gherkin or cabbage, evaluated 4 to 5 days after inoculation, 0% = control plants, 100% = no disease, read-out: efficacy
Experimental: as §1, with “B-2.” for “B-4.”, “Botrytis cinerea (Grey Mould” for “Sphaerotheca fuliginea (Powdery Mildew on Cucurbits”, “gherkin or cabbage” for “gherkin”, “Botrytis cinerea” for “Sphaerotheca fuliginea”

[5] = tested on: Pyricularia oryzae; assay: microbe, parasite or virus in culture; format: cell-based; settings: 120 h, read-out: efficacy (inhibition of fungal growth)
[6] = tested on: Alternaria alternata; assay: Alternaria alternata in vitro cell test; format: cell-based; settings: 120 h, 20 ppm of active ingredient, liquid culture with spores, 5 days incubation, spectrometric measurement of mycelium growth, read-out: efficacy (inhibition of fungal growth)
Experimental: (§2) B-6. Alternaria alternata In Vitro Cell Test • Solvent: DMSO • Culture medium: 14.6 g anhydrous D-glucose (VWR), 7.1 g Mycological Peptone (Oxoid), 1.4 g granulated Yeast Extract (Merck), QSP 1 liter • Inoculum: spores suspension Fungicides were solubilized in DMSO and the solution used to prepare the required range of concentrations. […] A spore suspension of A. alternata was prepared and diluted to the desired spore density. Fungicides were evaluated for their ability to inhibit spore germination and mycelium growth in liquid culture assay. The compounds were added in the desired concentration to the culture medium with spores. After 5 days incubation, fungi-toxicity of compounds was determined by spectrometric measurement of mycelium growth. Inhibition of fungal growth was determined by comparing the absorbance values in wells containing the fungicides with the absorbance in control wells without fungicides.

[7] = tested on: Pyrenophora teres; assay: Pyrenophora teres in vitro cell test; format: cell-based; settings: 144 h, 20 ppm of active ingredient, liquid culture with spores, 6 days incubation, spectrometric measurement of mycelium growth, read-out: efficacy (inhibition of fungal growth)
Experimental: as §2, with “B-9. Pyrenophora Teres In” for “B-6. Alternaria alternata In”, “Inoculum: spore” for “Inoculum: spores”, “of P. teres” for “of A. alternata”, “After 6” for “After 5”

SMILES | chromatographic logP [1] | pest or weed control at 500 ppm [2] [%] | inhibition at 20 ppm [3] [%] | pest or weed control at 500 ppm [4] [%] | inhibition at 20 ppm [5] [%] | inhibition at 20 ppm [6] [%] | inhibition at 20 ppm [7] [%]
Cc1ccc(C(F)(F)CNC(=O)c2c(Oc3cccc(C(F)(F)F)c3)cnc(Cl)c2C)c(C)c1 [Compound I-019, 2-chloro-N-[2-(2,4-dimethylphenyl)-2,2-difluoro-ethyl]-3-methyl-5-[3-(trifluoromethyl)phenoxy]pyridine-4-carboxamide] | 4.64 | 90 to 100 | 90 to 100 | 90 to 100 | 90 to 100 | 90 to 100 | –
CCc1ccc(C(F)(F)CNC(=O)c2cc(Cl)ncc2Oc2cccc(C(F)(F)F)c2)c(Cl)c1 [Compound I-034, 2-chloro-N-[2-(2-chloro-4-ethyl-phenyl)-2,2-difluoro-ethyl]-5-[3-(trifluoromethyl)phenoxy]pyridine-4-carboxamide] | 4.98 | 90 to 100 | – | 90 to 100 | – | 80 to 89 | –
Cc1ccc(CCNC(=O)c2cc(NC3CC3)ncc2Oc2cccc(C(F)(F)F)c2)c(C)c1 [Compound I-050, 2-(cyclopropylamino)-N-[2-(2,4-dimethylphenyl)ethyl]-5-[3-(tri-fluoromethyl)phenoxy]pyridine-4-carboxamide] | 3.77 | – | – | 90 to 100 | – | 90 to 100 | –
Cc1ccc(C(F)(F)CNC(=O)c2c(Oc3cccc(C(F)(F)F)c3)cnc(Cl)c2I)c(C)c1 [Compound I-057, 2-chloro-N-[2-(2,4-dimethylphenyl)-2,2-difluoro-ethyl]-3-iodo-5-[3-(trifluoromethyl)phenoxy]pyridine-4-carboxamide] | 4.8 | 90 to 100 | – | 90 to 100 | – | 90 to 100 | –
CC(=O)c1cc(C(=O)NCCc2ccc(C)cc2C)c(Oc2cccc(C(F)(F)F)c2)cn1 [Compound I-087, 2-acetyl-N-[2-(2,4-dimethylphenyl)ethyl]-5-[3-(trifluoromethyl)phenoxy]pyridine-4-carboxamide] | 4.47 | 80 to 89 | 80 to 89 | 90 to 100 | 80 to 89 | 90 to 100 | –
O=C(NCC(F)(F)c1ccc(C2CCCC2)cc1Cl)c1cc(Cl)ncc1Oc1cccc(C(F)F)c1 [Compound I-124, 2-chloro-N-[2-(2-chloro-4-cyclopentyl-phenyl)-2,2-difluoro-ethyl]-5-[3-(difluoromethyl)phenoxy]pyridine-4-carboxamide] | 5.5 | – | – | – | – | – | 90 to 100
Cc1ccc(CCNC(=O)c2cc(Cl)ncc2Oc2ccc3c(c2)OC(F)(F)O3)c(C)c1 [Compound I-140, 2-chloro-5-[(2,2-difluoro-1,3-benzodioxol-5-yl)oxy]-N-[2-(2,4-dimethylphenyl)ethyl]pyridine-4-carboxamide] | 4.82 | 90 to 100 | – | 70 to 79 | – | – | 90 to 100
Cc1ccc(C(F)(F)CNC(=O)c2c(Oc3cccc(C(F)(F)F)c3)cnc(Cl)c2-n2cccn2)c(C)c1 [Compound I-167, 2-chloro-N-[2-(2,4-dimethylphenyl)-2,2-difluoroethyl]-3-(1H-pyrazol-1-yl)-5-[3-(trifluoromethyl)phenoxy]pyridine-4-carboxamide] | 4.51 | 90 to 100 | 80 to 89 | 90 to 100 | 80 to 89 | 90 to 100 | 90 to 100
